Data from the supplement of paper PMC10307832.

Assays:
Assay in all cases: relative viability (nuclei count vs DMSO), 5 days (fraction); higher = more cells survive
[1] = compound: CCN(CCO)CCCC(C)Nc1ccnc2cc(Cl)ccc12 [Hydroxychloroquine] + O=C(CCCCCCC(=O)Nc1ccccc1)NO [Vorinostat] (partner 1 µM)
How it was run: (§1)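 Medians of duplicate plates are given as relative viability. That measure is the nuclei count in treated wells divided by the count in vehicle wells. Counts were taken on 4× images of lung cancer cell lines in 1536-well plates, 5 days after pin-tool dosing the day after seeding with one drug alone or a fixed anchor-drug dose plus five library-drug doses (not always all listed) in √10 steps.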

[2] = compound: CCN(CCO)CCCC(C)Nc1ccnc2cc(Cl)ccc12 [Hydroxychloroquine] + CS(=O)(=O)N1CCN(Cc2cc3nc(-c4cccc5[nH]ncc45)nc(N4CCOCC4)c3s2)CC1 [Pictilisib] (partner 1 µM)
How it was run: as §1

[3] = compound: CCN(CCO)CCCC(C)Nc1ccnc2cc(Cl)ccc12 [Hydroxychloroquine] + C[C@@H](Oc1cc(-c2cnn(C3CCNCC3)c2)cnc1N)c1c(Cl)ccc(F)c1Cl [Crizotinib] (partner 1 µM)
How it was run: as §1

[4] = compound: CCN(CCO)CCCC(C)Nc1ccnc2cc(Cl)ccc12 [Hydroxychloroquine] + Cc1nc(Nc2ncc(C(=O)Nc3c(C)cccc3Cl)s2)cc(N2CCN(CCO)CC2)n1 [Dasatinib] (partner 0.075 µM)
How it was run: as §1

Cell Line	relative viability ([1]; first compound 0.5 µM)	relative viability ([1]; first compound 1.581 µM)	relative viability ([1]; first compound 5 µM)	relative viability ([1]; first compound 15.81 µM)	relative viability ([1]; first compound 50 µM)	relative viability ([2]; first compound 0.5 µM)	relative viability ([2]; first compound 1.581 µM)	relative viability ([2]; first compound 5 µM)	relative viability ([2]; first compound 15.81 µM)	relative viability ([2]; first compound 50 µM)	relative viability ([3]; first compound 0.5 µM)	relative viability ([3]; first compound 1.581 µM)	relative viability ([3]; first compound 5 µM)	relative viability ([3]; first compound 15.81 µM)	relative viability ([3]; first compound 50 µM)	relative viability ([4]; first compound 0.5 µM)	relative viability ([4]; first compound 1.581 µM)	relative viability ([4]; first compound 5 µM)	relative viability ([4]; first compound 15.81 µM)	relative viability ([4]; first compound 50 µM)
201T	0.954	0.943	1.02	0.929	1.07	0.687	0.555	0.641	0.631	0.698	1.02	1	1.07	0.978	0.821	0.582	0.578	0.598	0.606	0.608
A549						0.622	0.525	0.434	0.529	0.565	0.832	0.643	0.781	0.735	0.805					
A-427	0.919	0.826	0.834	0.807	0.79	0.713	0.624	0.674	0.585	0.628	0.935	0.869	0.94	0.838	0.973	0.748	0.67	0.774	0.649	0.796
ABC-1	1.33	1.19	1.11	0.934	1.19	0.75	0.761	0.783	0.815	0.737	1.13	0.981	1.46	1.2	1.09	0.543	0.644	0.521	0.562	0.565
BEN	0.632	0.563	0.638	0.635	0.608	0.615	0.465	0.49	0.6	0.676	0.848	0.728	0.863	0.947	1.01	0.273	0.332	0.316	0.267	0.331
CAL-12T	0.865	0.725	0.684	0.873	0.979	0.793		0.382	0.35	0.598	0.577	0.614	0.92	0.579	0.831	0.573	0.399	0.352	0.351	0.404
COR-L23	0.409	0.455	0.545	0.453	0.415	0.585	0.84	0.875	0.899	0.968	0.786	0.573	0.895	0.868	0.86	0.472	0.543	0.533	0.421	0.534
COR-L 105	0.87	0.807	0.628	0.743	0.804	0.392	0.435	0.425	0.325	0.338	0.871	0.838	0.901	0.835	0.79	0.284	0.384	0.34	0.298	0.272
Calu-6						0.997	0.785	0.949	0.962	0.986	0.84	0.855	0.847	0.896	0.579					
ChaGo-K-1	0.806	0.785	0.778	0.759	0.711	0.873	0.506	0.383	0.662	0.64	1.05	1.14	1.16	1.51	1.24	0.626	0.593	0.537	0.593	0.626
EKVX	0.688	0.609	0.677	0.767	0.648	0.458	0.383	0.476	0.427	0.476	1.01	0.919	0.814	0.907	0.963	0.512	0.502	0.495	0.535	0.337
EMC-BAC-2	0.492	0.443	0.375	0.425	0.328	0.593	0.417	0.547	0.55	0.612	0.826	0.743	0.741	0.755	0.807	0.309	0.381	0.347	0.329	0.345
EPLC-272H		0.359	0.433	0.392	0.488	0.282	0.246	0.333	0.297	0.349	0.8	0.983	0.92	0.86	1.23	0.342	0.441	0.333	0.335	0.347
H3255	0.741	0.715	0.716	0.858	0.762	0.513	0.517	0.462	0.474	0.507	0.848	0.979	0.716	0.841	0.985	0.367	0.386	0.3	0.281	0.369
HARA	0.516	0.482	0.55	0.603	0.594	0.316	0.383	0.508	0.407	0.362	1.13	1.31	1.05	1.02	1.04	0.287	0.262	0.253	0.29	0.299
HCC-15	0.796	0.828	0.902	0.9	0.775	0.773	0.668	0.749	0.744	0.659	0.884	0.818	0.867	1.01	0.94	0.621	0.578	0.581	0.609	0.627
HCC-44	1.1	1.09	1.14	1.1	1.14	0.475	0.61	0.588	0.552	0.661	0.821	0.804	0.87	0.829	1.01					
